Data taken from patent US12454531B2, “Substituted piperazine derivatives useful as T cell activators” (BRISTOL-MYERS SQUIBB COMPANY, priority 2019, dated 2025).
Like-named read-outs stand apart in the source and are kept apart here.

What was measured:
[1] = molecular target: DGKα (Homo sapiens (Human), UniProt P23743); experiment: Assay 2: In Vitro DGK Inhibition Assays, Method B (DGKα ADPGLO); assay type: biochemical; conditions: 150 μM ATP
Description: Assay 2: In Vitro DGK Inhibition Assays—Method B
The DGKα and DGKζ reactions were performed using either extruded liposome (DGKα and DGKζ LIPGLO assays) or detergent/lipid micelle substrate (DGKα and DGKζ assays). The reactions were carried out in 50 mM MOPS pH 7.5, 100 mM NaCl, 10 mM MgCl2, 1 μM CaCl2), and 1 mM DTT (assay buffer). The reactions using a detergent/lipid micelle substrate also contained 50 mM octyl B-D-glucopyranoside. The lipid substrate concentrations were 11 mM PS and 1 mM DAG for the detergent/lipid micelle reactions. The lipid substrate concentrations were 2 mM PS, 0.25 mM DAG, and 2.75 mM PC for the extruded liposome reactions (5 mM total lipid). The reactions were carried out in 150 μM ATP. The enzyme concentrations for the DGKα and DGKζ were nM.
The compound inhibition studies were carried out as follows: 25 nL droplets of each test compound (top concentration 10 mM with 11 point, 3-fold dilution series for each compound) solubilized in DMSO were transferred to wells of a white 1536 well plate (Corning 3725). A 5 mL enzyme/lipid substrate solution at 2× final reaction concentration was prepared by combining 2.5 mL 4× enzyme solution (20 nM DGKα or DGKζ (prepared as described below) in assay buffer) and 2.5 mL of either 4× liposome or 4× detergent/lipid micelle solution (compositions described below) and incubated at room temperature for 10 minutes. Next, 1 μL 2× enzyme/lipid substrate solution was added to wells containing the test compound and reactions were initiated with the addition of 1 μL 300 uM ATP. The reactions were allowed to proceed for 2 hr, after which 2 μL Glo Reagent (Promega V9101) was added and incubated for 40 minutes. Next, 4 μL Kinase Detection Reagent was added and incubated for 30 minutes. Luminescence was recorded using an EnVision microplate reader. […] The compounds were evaluated at 11 concentrations to determine IC50.
The detergent/lipid micelle was prepared by combining 15 g phosphatidylserine (Avanti 840035P) and 1 g diacylglycerol (8008110) and dissolving into 150 mL chloroform in a 2 L round bottom flask. Chloroform was removed under high vacuum by rotary evaporation. The resulting colorless, tacky oil was resuspended in 400 mL 50 mM MOPS pH 7.5, 100 mM NaCl, 20 mM NaF, 10 mM MgCl2, 1 μM CaCl2), 1 mM DTT, and 200 mM octyl glucoside by vigorous mixing. The lipid/detergent solution was split into 5 mL aliquots and stored at −80° C.
The lipid composition was 5 mol % DAG (Avanti 8008110), 40 mol % PS (Avanti 840035P), and 55 mol % PC (Avanti 850457) at a total lipid concentration of […] for the liposome solution. The PC, DAG, and PS were dissolved in chloroform, combined, and dried in vacuo to a thin film. The lipids were hydrated to 20 mM in 50 mM MOPS pH 7.5, 100 mM NaCl, 5 mM MgCl2, and were freeze-thawed five times. The lipid suspension was extruded through a 100 nm polycarbonate filter 10-12 times. Dynamic light scattering was carried out to confirm liposome size (50-60 nm radius). The liposome preparation was stored at 4° C. for as long as four weeks.
Human MA-hDGKα-(S9-S727)-Ct-TVMV-His-pFBgate and full length human DGK-ζ-transcript variant-2-TVMV-His-pFBgate baculovirus samples were generated using the Bac-to-Bac baculovirus expression system (Invitrogen) according to the manufacturer's protocol (note: MA- in name of DGKα reagents indicates two extra amino acids added prior to Ser-9). The DNA used for expression of the DGK-α(9-727) and DGK-C have SEQ ID NOs: 5 and 3, respectively. […]

[2] = tested on: Human whole blood pERK; experiment: Assay 11: DGK Human Whole Blood pERK Assay; assay type: cell-based; conditions: anti-CD3 stimulation, pERK positive within CD8 positive population, starting concentration 20 μM, read-out: DGK HWB pERK IC50
Description: Assay 11: DGK Human Whole Blood pERK Assay
Human whole blood ERK phosphorylation assay was performed with human venous whole blood obtained from healthy donors (drawn with Heparin as anti-coagulant). Serial dilutions of compounds (11 points, 3-fold) in DMSO were added to 384 well plates at 20 nL/well using an ECHO 550 acoustic dispenser (Labcyte) to achieve final starting concentration of 20 μM in assay. Heparinized human whole blood was added to the compound plate at 9 μL per well and incubated for one hour at 37° C. in a humidified 95%, air/5% CO2 incubator. After one hour of compound incubation, 1 μL of human anti-CD3 antibody (in-house) in the presence of cross-linking antibody goat anti-mouse IgG (4 μg/mL) was added to the well at 1 μg/mL final concentration for stimulation of pathway and additionally incubated for 15 minutes at 37° C. Stimulation was stopped by adding 90 μL Fix/Lyse buffer (BD 558049). Cells were washed and stained with anti-CD8 PE (BD 555635) antibodies for 60 minutes at room temperature, washed again, and permeabilized on ice using Perm III buffer (BD 558050) for 30 minutes. Cells were then stained with an Alexa Fluor® 647 anti-ERK1/2 Phospho (Thr202/Tyr204) Antibody (Bioleged 675504) for 60 minutes at 1:50 dilution. Samples were washed and resuspended in dPBS containing 1% BSA (dPBS, Gibco 14190136; BSA, Sigma-Aldrich A9205). Samples analyzed using the Intellicyt® iQue Screener PLUS. The pERK activation was quantitated by the percentage of pERK positive population within CD8 positive population.

Chain of DGKα (P23743 other isoform, or with tags, fused parts or gaps): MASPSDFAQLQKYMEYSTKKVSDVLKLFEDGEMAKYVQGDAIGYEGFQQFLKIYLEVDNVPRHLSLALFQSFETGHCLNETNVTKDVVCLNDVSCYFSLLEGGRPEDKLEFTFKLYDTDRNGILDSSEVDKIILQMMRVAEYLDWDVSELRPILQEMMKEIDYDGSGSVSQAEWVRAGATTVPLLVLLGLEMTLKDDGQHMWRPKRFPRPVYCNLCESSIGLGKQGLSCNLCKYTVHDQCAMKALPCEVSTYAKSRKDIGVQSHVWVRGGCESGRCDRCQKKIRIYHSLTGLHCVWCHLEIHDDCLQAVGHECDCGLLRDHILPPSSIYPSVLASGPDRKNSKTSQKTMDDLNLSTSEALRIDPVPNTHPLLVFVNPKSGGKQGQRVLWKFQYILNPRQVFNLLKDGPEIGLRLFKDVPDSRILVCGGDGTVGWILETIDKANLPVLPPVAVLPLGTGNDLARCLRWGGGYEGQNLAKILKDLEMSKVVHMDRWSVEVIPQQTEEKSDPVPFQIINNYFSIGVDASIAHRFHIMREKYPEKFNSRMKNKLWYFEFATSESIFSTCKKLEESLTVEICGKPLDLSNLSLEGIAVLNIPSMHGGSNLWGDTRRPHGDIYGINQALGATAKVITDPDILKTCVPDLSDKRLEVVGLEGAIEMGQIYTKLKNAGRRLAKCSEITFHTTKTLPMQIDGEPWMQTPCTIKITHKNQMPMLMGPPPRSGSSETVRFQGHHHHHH

SMILES | IC50 [1] | IC50 ([2]; Homo sapiens, CD8 positive) | IC50 [2]
CC[C@H]1CN(C(C(=O)N2CCOCC2)c2ccc(C(F)(F)F)cc2)[C@H](CC)CN1c1nc(=O)n(C)c2ccc(C#N)nc12 (single isomer, unassigned) [Example 53] | 1970 nM | 5530 nM | –
CC[C@H]1CN(C(C(=O)N2CCOCC2)c2ccc(C(F)(F)F)cc2)[C@H](CC)CN1c1nc(=O)n(C)c2ccc(C#N)nc12 (single isomer, unassigned) [Example 54] | 260 nM | – | 3510 nM
CC[C@H]1CN(C(C(=O)NCCOC)c2ccc(C(F)(F)F)cc2)[C@H](CC)CN1c1nc(=O)n(C)c2ccc(C#N)nc12 (single isomer, unassigned) [Example 56] | 7500 nM | 300 nM | –
